Reference: PMC6539584, “Mosquito Acetylcholinesterase as a Target for Novel Phenyl-Substituted Carbamates” (International Journal of Environmental Research and Public …, 2019)
Where two headings read alike, the source gives them in different places.

Experiments:
[1] = biological target: T1, hAChE (Homo sapiens, UniProt P22303); experiment: Ellman assay, 96-well, […] nm; format: biochemical
T1 construct: gene ACHE; commercial recombinant human enzyme (Sigma-Aldrich)

[2] = biological target: T1, hAChE; experiment: Ellman assay, 96-well, […] nm; format: biochemical; remark: listed apart in the source
[3] = Ellman assay, 96-well, […] nm; format: biochemical, Homo sapiens; conditions: read-out: AgAChE, IC50, ^a nM
[4] = acetylthiocholine, pH 7.8, 10 min pre-incubation, 0.1% DMSO; covalent; read-out: hAChE IC50 ^a; cited from earlier work

T1 sequence (P22303 32-614): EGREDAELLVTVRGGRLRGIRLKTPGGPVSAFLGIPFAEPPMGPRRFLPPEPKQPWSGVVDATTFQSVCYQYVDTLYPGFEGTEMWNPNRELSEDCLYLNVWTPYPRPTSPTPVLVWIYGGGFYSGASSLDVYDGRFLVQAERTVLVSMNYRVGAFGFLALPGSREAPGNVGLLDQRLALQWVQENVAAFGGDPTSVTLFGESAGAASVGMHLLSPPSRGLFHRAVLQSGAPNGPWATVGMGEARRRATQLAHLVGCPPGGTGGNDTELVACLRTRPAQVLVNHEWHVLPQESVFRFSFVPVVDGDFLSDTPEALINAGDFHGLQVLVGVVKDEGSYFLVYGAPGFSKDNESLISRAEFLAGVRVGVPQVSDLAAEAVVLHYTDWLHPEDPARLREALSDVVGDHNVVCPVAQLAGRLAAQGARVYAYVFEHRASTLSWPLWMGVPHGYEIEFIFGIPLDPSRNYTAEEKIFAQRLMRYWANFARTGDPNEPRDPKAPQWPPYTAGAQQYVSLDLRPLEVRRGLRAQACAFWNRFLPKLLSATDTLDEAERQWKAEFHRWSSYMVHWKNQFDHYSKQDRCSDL

For “3-(tert-butyl)-4-(ethyl(methyl)carbamoyl)phenyl methylcarbamate [1l]”, the IC50 ([1]; acetylthiocholine, pH 7.8, 10 min pre-incubation, 0.1% DMSO, covalent, read-out: hAChE ^aIC50) was 5500 nM.
For `CNC(=O)Oc1cccc(C(C)(C)C)c1` [1a, 3-tert-butylphenyl methylcarbamate], the IC50 ([2]; read-out: hAChE ^aIC50; acetylthiocholine, pH 7.8, 10 min pre-incubation, 0.1% DMSO; covalent; cited from earlier work) is listed as 320 nM.
For `CNC(=O)Oc1ccc(Br)c(C(C)(C)C)c1` [1b, 4-bromo-3-(tert-butyl)phenyl methylcarbamate], the IC50 [1] was 1200 nM.
Compound `CNC(=O)Oc1cc(C(C)(C)C)ccc1Br` [1d, 2-bromo-5-(tert-butyl)phenyl methylcarbamate] has an IC50 [1] of 48 nM.
For `CNC(=O)Oc1cc(C(C)(C)C)ccc1I` [1e, 5-(tert-butyl)-2-iodophenyl methylcarbamate], the IC50 [1] was 640 nM.
With `CCCCCCc1ccc(C(C)(C)C)cc1OC(=O)NC` [1f, 5-(tert-butyl)-2-hexylphenyl methylcarbamate] the IC50 [1] was 6300 nM.
Compound `C=CCNC(=O)c1ccc(OC(=O)NC)cc1C(C)(C)C` [1h, 4-(allylcarbamoyl)-3-(tert-butyl)phenyl methylcarbamate] has an IC50 [1] of 2800 nM.
For `CNC(=O)Oc1ccc(C(=O)NC)c(C(C)(C)C)c1` [1i, 3-(tert-butyl)-4-(methylcarbamoyl)phenyl methylcarbamate], the IC50 [1] was > 100000 nM.
For `CNC(=O)Oc1ccc(C(=O)NCC(C)C)c(C(C)(C)C)c1` [1j, 3-(tert-butyl)-4-(isobutylcarbamoyl)phenyl methylcarbamate], the IC50 [1] was > 100000 nM.
In the case of `CCN(CC)C(=O)c1ccc(OC(=O)NC)cc1C(C)(C)C` [1k, 3-(tert-butyl)-4-(diethylcarbamoyl)phenyl methylcarbamate], the IC50 [1] is reported as 2300 nM.
In the case of `CNC(=O)Oc1cc(C(C)(C)C)ccc1SC` [1m, 5-(tert-butyl)-2-(methylthio)phenyl methylcarbamate], the IC50 [1] is reported as 640 nM.
`CNC(=O)Oc1cc(C(C)(C)C)ccc1SCC(C)C` [1n, 5-(tert-butyl)-2-(isobutylthio)phenyl methylcarbamate] gave an IC50 [1] of 4700 nM.
`CNC(=O)Oc1cc(C(C)(C)C)ccc1SC(C)C` [1o, 5-(tert-butyl)-2-(isopropylthio)phenyl methylcarbamate] showed an IC50 [1] of 2200 nM.
With `CNC(=O)Oc1cccc(C(F)(F)F)c1` [2a, 3-(trifluoromethyl)phenyl methylcarbamate] the IC50 [3] was > 100000 nM.
In the case of `CNC(=O)Oc1cccc([Si](C)(C)C)c1` [3a], the IC50 [2, 4] is given as 490 nM.
Work on `CNC(=O)Oc1ccc(C)c([Si](C)(C)C)c1` [3c, 4-methyl-3-(trimethylsilyl)phenyl methylcarbamate] yielded an IC50 [1] of 2400 nM.
In the case of `CNC(=O)Oc1cc(F)cc([Si](C)(C)C)c1` [3g, 3-fluoro-5-(trimethylsilyl)phenyl methylcarbamate], the IC50 [1] is reported as 4200 nM.
For `CC[Si](C)(C)c1cccc(OC(=O)NC)c1` [4a], the IC50 [2, 4] is given as 630 nM.
With `CC[Si](C)(C)c1cc(OC(=O)NC)ccc1C` [4c, 3-(ethyldimethylsilyl)-4-methylphenyl methylcarbamate] the IC50 [1] was 1400 nM.
Compound `CC[Si](C)(C)c1cc(F)cc(OC(=O)NC)c1` [4g, 3-(ethyldimethylsilyl)-5-fluorophenyl methylcarbamate] has an IC50 [1] of 1900 nM.
For `CCC(CC)CSc1ccccc1OC(=O)NC` [5a], the IC50 ([2]; read-out: hAChE IC50 ^a; acetylthiocholine, pH 7.8, 10 min pre-incubation, 0.1% DMSO; covalent; cited from earlier work) is listed as 5000 nM.
For `CCCSc1ccccc1OC(=O)NC` [6a, 2-(propylthio)phenyl methylcarbamate], the IC50 [1] was 2300 nM.
